In ChEMBL document CHEMBL1201862, “PubChem BioAssay data set” (2004):
The source made the active and inactive calls.

Experiments:
[1] = mitochondrial function rescue without frataxin homolog – Friedreich's ataxia, plus single-dose screen, dose response (AID 1465); format: functional;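 also: yeast depleted of Yfh1p frataxin homolog grown on glycerol needing respiration; WST-1 tetrazolium dye reduction as measure of cellular dehydrogenase metabolic activity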
[2] = molecular target: FAD-linked sulfhydryl oxidase ALR (Homo sapiens, UniProt P55789); test: ALR-catalysed DTT oxidation blockers – biochemical, H2O2 detection, luminescence, cherry-pick, dose response (AID 493248)
[3] = molecular target: T1, Corticotropin-releasing factor receptor 2/Corticotropin-releasing factor-binding protein (Homo sapiens, UniProt P24387+Q13324); test: activators of CRF receptor 2 with binding protein – uHTS hits, confirmation (AID 602473); format: functional; conditions: read-out: EC50_Mean
T1 sequence (Q13324 whole entry): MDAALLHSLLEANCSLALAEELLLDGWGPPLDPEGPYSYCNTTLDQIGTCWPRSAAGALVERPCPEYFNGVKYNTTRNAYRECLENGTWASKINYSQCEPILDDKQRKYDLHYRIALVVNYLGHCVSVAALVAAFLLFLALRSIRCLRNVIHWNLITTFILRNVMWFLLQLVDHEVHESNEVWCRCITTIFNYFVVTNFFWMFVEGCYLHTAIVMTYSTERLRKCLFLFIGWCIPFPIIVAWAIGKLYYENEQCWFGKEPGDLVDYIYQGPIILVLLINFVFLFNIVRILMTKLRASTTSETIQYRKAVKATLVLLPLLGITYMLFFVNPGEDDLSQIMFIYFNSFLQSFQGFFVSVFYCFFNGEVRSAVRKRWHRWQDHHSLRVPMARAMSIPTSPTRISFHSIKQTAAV
T1 sequence (P24387 whole entry): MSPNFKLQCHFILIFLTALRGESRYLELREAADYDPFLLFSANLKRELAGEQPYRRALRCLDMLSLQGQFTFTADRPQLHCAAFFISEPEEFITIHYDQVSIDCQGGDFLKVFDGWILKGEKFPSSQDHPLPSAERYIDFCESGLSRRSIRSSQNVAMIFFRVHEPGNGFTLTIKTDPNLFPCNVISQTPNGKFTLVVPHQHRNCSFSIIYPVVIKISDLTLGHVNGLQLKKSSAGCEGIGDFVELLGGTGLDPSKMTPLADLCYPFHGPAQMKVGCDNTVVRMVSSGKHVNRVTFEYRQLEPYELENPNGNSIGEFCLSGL

[4] = molecular target: Long-chain-fatty-acid--AMP ligase FadD28 (Mycobacterium tuberculosis, UniProt P9WQ59); test: Fluorescence polarization aasay to screen for inhibitors that compete for the binding of FadD28 to a bisubstrate Measured in Biochemical System Using Plate Reader - 2147-01_Inhibitor_Dose_CherryPick_Activity.; format: functional, Mycobacterium tuberculosis H37Rv
[5] = tested on: HeLa; test: Cytotoxicity counterscreen assay for transcriptional activators of heat shock protein 70 (Hsp70). [Related pubchem assays: 1203, 1252 ]; format: functional; conditions: Homo sapiens;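 also: cells exposed to compound for 16 hours before readout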
[6] = tested on: BJ; test: BJ-TERT fibroblast viability loss – cell-based, RAS-independent, luminescence, dose response (AID 1933); format: functional; conditions: Homo sapiens
[7] = tested on: BJ; test: cells; format: functional, cell-based; conditions: Homo sapiens
[8] = tested on: BJ; test: BJ-TERT-LT-ST fibroblast viability loss – cell-based, RAS-independent, luminescence, dose response (AID 1935); format: functional; conditions: Homo sapiens;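 also: BJ fibroblasts immortalized with TERT plus LT and ST oncogenes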
[9] = DRD fibroblast viability loss – cell-based, non-viral oncogenic, luminescence, dose response (AID 1934); format: functional; conditions: Homo sapiens
[10] = molecular target: Peroxisome proliferator-activated receptor gamma/Nuclear receptor coactivator 2 (Homo sapiens, UniProt P37231); format: functional;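 also: agonist potency for raising coactivator recruitment to the receptor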
[11] = molecular target: Peroxisome proliferator-activated receptor gamma/Nuclear receptor coactivator 1 (Homo sapiens, UniProt P37231); format: functional;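 also: agonist potency as compounds enhance coactivator SRC-1 recruitment to PPARgamma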
[12] = molecular target: Peroxisome proliferator-activated receptor gamma/Nuclear receptor coactivator 3 (Homo sapiens, UniProt P37231); format: functional;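 also: agonist potency for raising coactivator recruitment to the receptor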
Chain of Peroxisome proliferator-activated receptor gamma/Nuclear receptor coactivator 3 (P37231 whole entry): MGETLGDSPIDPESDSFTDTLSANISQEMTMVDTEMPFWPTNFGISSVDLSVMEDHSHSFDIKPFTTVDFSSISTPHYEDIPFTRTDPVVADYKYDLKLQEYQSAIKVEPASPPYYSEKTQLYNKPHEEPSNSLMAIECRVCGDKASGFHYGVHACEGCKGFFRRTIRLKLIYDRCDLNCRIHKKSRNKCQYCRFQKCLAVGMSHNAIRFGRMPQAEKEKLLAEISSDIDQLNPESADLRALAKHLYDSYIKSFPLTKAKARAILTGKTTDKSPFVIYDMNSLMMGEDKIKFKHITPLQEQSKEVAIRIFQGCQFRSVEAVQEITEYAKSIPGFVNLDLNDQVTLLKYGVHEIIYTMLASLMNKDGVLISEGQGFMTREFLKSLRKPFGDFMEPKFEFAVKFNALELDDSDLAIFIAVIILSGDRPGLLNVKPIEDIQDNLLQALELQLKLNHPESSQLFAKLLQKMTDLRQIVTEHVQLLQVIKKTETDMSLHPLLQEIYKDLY
Chain of Peroxisome proliferator-activated receptor gamma/Nuclear receptor coactivator 3 (Q9Y6Q9 whole entry, further chain): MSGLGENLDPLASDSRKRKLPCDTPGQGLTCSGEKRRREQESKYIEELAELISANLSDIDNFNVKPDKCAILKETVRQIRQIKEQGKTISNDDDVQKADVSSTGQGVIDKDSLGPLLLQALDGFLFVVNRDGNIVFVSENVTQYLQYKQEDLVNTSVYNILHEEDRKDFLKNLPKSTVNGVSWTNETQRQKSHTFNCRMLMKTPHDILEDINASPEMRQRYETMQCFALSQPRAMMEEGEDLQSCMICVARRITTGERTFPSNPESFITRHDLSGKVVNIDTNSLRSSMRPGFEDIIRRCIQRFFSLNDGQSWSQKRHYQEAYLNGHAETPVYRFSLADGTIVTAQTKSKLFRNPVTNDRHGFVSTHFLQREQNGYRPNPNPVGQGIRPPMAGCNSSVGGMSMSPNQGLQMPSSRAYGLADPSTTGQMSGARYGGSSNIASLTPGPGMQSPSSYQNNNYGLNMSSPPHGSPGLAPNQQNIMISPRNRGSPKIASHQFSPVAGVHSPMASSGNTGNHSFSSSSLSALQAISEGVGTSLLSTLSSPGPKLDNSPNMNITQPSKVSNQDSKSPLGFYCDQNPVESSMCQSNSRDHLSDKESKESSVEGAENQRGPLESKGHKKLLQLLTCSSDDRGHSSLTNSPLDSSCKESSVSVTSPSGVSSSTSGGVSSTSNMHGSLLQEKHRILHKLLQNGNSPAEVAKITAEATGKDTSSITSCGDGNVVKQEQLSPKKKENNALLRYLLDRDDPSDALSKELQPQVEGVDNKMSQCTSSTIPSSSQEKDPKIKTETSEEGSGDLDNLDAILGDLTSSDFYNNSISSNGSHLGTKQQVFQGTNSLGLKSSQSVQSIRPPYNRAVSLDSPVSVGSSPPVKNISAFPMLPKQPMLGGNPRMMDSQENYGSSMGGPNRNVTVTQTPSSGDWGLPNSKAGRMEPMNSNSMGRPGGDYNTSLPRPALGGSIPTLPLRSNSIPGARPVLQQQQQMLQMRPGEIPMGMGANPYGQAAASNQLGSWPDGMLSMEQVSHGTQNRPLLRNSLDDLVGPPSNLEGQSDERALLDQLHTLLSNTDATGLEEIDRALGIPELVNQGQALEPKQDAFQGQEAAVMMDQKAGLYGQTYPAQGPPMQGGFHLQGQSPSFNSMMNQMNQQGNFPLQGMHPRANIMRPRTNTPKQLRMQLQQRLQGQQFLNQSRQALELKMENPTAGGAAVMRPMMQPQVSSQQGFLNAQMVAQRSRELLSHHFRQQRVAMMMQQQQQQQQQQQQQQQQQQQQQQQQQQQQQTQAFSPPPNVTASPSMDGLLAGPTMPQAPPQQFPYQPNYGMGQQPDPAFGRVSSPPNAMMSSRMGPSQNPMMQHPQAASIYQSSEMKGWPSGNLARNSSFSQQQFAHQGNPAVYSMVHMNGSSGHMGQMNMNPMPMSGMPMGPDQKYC

Chain of Peroxisome proliferator-activated receptor gamma/Nuclear receptor coactivator 2 (P37231 whole entry): as the sequence (P37231 whole entry) above
Chain of Peroxisome proliferator-activated receptor gamma/Nuclear receptor coactivator 2 (Q15596 whole entry, further chain): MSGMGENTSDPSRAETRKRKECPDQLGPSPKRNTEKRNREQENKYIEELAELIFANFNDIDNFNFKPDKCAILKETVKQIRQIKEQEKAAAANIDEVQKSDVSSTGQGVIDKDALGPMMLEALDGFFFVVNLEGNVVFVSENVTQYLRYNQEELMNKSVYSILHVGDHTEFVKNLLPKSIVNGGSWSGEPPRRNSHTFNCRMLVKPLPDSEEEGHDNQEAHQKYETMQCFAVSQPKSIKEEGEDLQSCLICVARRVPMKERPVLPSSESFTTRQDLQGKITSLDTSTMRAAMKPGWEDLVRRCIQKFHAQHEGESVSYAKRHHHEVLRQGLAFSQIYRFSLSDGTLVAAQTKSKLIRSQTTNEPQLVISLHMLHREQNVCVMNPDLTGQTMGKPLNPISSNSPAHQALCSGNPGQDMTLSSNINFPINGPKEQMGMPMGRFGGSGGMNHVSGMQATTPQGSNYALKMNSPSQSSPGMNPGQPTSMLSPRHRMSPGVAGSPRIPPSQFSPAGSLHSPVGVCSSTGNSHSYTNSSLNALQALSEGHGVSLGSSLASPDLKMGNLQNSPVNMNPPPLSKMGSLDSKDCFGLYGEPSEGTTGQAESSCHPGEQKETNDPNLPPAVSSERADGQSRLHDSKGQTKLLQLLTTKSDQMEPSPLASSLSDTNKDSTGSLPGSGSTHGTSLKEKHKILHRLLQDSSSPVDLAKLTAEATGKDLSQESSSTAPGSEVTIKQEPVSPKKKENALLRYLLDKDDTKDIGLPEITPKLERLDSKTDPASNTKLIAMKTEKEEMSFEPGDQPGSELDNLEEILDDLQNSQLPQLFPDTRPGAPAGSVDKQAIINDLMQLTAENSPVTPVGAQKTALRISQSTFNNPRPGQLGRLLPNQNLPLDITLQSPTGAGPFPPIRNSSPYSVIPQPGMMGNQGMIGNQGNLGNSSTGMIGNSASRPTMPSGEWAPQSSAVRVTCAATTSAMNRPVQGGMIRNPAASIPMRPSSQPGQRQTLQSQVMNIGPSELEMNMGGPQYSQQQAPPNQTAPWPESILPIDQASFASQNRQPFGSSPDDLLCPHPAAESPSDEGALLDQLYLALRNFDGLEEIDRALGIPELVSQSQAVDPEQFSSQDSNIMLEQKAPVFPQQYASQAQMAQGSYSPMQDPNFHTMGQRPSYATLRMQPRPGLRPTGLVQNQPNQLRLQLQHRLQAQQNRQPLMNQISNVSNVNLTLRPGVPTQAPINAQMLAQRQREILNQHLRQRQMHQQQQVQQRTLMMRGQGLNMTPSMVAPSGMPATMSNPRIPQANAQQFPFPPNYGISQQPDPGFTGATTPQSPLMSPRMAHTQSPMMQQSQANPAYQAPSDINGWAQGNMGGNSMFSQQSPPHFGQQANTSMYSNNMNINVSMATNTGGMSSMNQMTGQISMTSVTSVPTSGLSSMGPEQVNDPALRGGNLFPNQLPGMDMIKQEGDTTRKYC
Chain of FAD-linked sulfhydryl oxidase ALR (P55789 whole entry): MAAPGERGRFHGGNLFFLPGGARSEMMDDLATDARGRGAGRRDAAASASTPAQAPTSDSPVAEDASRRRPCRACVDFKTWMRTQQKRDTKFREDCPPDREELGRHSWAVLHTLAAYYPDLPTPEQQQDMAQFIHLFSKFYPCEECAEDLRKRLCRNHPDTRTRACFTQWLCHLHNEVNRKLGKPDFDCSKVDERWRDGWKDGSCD
Chain of Long-chain-fatty-acid--AMP ligase FadD28 (P9WQ59 whole entry): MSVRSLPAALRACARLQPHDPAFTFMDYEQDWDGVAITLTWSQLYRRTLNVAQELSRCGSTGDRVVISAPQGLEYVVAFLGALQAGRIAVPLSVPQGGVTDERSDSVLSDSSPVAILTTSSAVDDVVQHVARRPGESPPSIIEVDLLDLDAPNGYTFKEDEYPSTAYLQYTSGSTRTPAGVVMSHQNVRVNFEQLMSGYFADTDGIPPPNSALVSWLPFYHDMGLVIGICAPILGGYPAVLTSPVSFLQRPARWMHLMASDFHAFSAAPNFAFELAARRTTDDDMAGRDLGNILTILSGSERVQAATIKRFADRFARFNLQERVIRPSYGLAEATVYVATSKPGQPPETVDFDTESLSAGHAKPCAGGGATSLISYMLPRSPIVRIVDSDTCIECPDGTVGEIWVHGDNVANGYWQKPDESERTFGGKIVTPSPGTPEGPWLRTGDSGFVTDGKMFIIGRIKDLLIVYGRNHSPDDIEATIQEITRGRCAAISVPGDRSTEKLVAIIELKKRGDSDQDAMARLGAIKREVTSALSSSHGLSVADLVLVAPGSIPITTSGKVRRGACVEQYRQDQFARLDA

SMILES: O=C(NN/C=C1\C(=O)N(c2ccc(Cl)cn2)C(=O)c2ccccc21)c1ccncc1
- EC50 [1]: > 100 µM (active)
- AC50 [2]: 5.43 µM (active)
- EC50 [3]: 6.13 µM (active)
- AC50 [4]: > 100 µM (inactive)

SMILES: COc1ccc(/C=C/C(=O)c2cc(F)ccc2OC(=O)c2ccccc2OC)cc1OC
- CC50 [5]: 14.6 µM (not active)
- EC50 [6]: 1.14 µM (inconclusive)
- EC50 [7]: 2.76 µM (active)
- EC50 [8]: 1.41 µM (active)
- EC50 [9]: 2.56 µM (active)

SMILES: CCOCCn1/c(=N/C(=O)c2cc(Cl)sc2Cl)sc2cc(S(N)(=O)=O)ccc21
- EC50 [10]: 14 µM (not active)
- EC50 [11]: 13.4 µM (not active)
- EC50 [12]: 16.8 µM (not active)

SMILES: CC1C/C(=C/c2ccccn2)C(=O)/C(=C/c2ccccn2)C1 (stereo unspecified)
- CC50 [5]: > 1.22 µM (not active)

SMILES: CC(C)(C)C1CCc2c(sc(NC(=O)c3cccs3)c2C(N)=O)C1 (stereo unspecified)
- EC50 [10]: > 79.4 µM (not active)
- EC50 [11]: > 79.4 µM (not active)
- EC50 [12]: > 79.4 µM (not active)
